Seven compounds from patent publication US20210198277A1, “AMINE-SUBSTITUTED ARYL OR HETEROARYL COMPOUNDS” (Epizyme, Inc., priority 2016, published 2021) can be followed below.

For the assay, the target named is T1, human EHMT2 913-1193 (Homo sapiens, UniProt Q96KQ7).
T1 construct: recombinant purified human EHMT2 913-1193, Viva; purchased Viva
T1 sequence (Q96KQ7 913-1193): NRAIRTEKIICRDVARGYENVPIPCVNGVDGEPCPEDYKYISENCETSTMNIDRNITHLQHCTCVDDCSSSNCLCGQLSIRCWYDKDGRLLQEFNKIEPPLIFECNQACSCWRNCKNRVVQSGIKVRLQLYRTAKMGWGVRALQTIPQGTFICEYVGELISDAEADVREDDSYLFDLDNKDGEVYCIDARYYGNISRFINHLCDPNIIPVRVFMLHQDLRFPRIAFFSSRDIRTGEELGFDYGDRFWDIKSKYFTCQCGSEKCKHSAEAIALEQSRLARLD
The experiment in a line: EHMT2 enzyme assay on histone peptide substrate (EHMT2 PEP). Type of assay: biochemical. As to conditions: Table VI; read-out: EHMT2 PEP IC50. Put shortly: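 Radiometric methyltransferase assay: 0.031 nM EHMT2 913-1193 preincubated 30 min with compound (10-point 3-fold series, top final 50 μM, 2% DMSO) in 20 mM Bicine pH 7.5, 1 mM TCEP. Biotinylated histone peptide methylated with ^3H-SAM for 60 min at room temperature, quenched with unlabeled SAM, captured on streptavidin Flashplates and counted.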

As for `CCN1CCC(O)(COc2cc(Nc3nccc(NC)n3)ccc2OC)C1` (stereo not shown) [Compound 1006], the half-inhibitory concentration (IC50) – broadly, the concentration needed to halve the response being measured – was 0.1 to 1 µM.
The result for `CCN1CCC(O)(COc2cc(Nc3nccc(NC)n3)ccc2OC)C1` (stereo not shown) [Compound 1007] reads over 10 µM.
Regarding `CNc1ccnc(Nc2ccc(OC)c(OCC(C)CN3CCC3)c2)n1` (stereo not shown) [Compound 1008], the half-maximal inhibitory concentration (IC50) was 0.1 to 1 µM.
Take `CNCC(C)COc1cc(Nc2nccc(NC)n2)ccc1OC` (stereo not shown) [Compound 1009]: the IC50 is 1 to 10 µM.
As for `CNCCC(C)Oc1cc(Nc2nccc(NC)n2)ccc1OC` (stereo not shown) [Compound 1011], the IC50 lay in the range of 1 to 10 µM.
Turning to `CNc1ccnc(Nc2ccc(OC)c(OCCC(C)N3CCC3)c2)n1` (stereo not shown) [Compound 1014], the concentration for half-maximal inhibition (IC50) lay within 1 to 10 µM.
Then `CNc1ccnc(Nc2ccc(OC)c(OCCC(C)NC)c2)n1` (stereo not shown) [Compound 1016], with 1 to 10 µM.
